Measurements reported in US4684625A, “Method for enhancing the anti-infective activity of muramyldipeptide derivatives” (Syntex (U.S.A.) Inc., priority 1985, dated 1987).
Where “and” joins values, the source holds several entries; their conditions need not be identical. Identical values can stand only once.

Experiments:
[1] = tested on: Candida albicans; assay: Survival of mice given a single abu-MDP treatment 72 hr prior to challenge with Candida albicans (Example 2, Table II); assay type: in vivo; conditions: one treatment at day 3 before infection
Method: (§1) Mice were injected intravenously with liposomes (4 micromoles phospholipid)and also with free abu-MDP (2-4 mg/kg). The abu-MDP was injected at the same time as the liposome injection. Injections were made at 96 and 48 hr prior to challenge with Candida albicans (5×10^6 cells injected intravenously). Control mice were treated with either liposomes only, or abu-MDP only (4 or 60 mg/kg), or abu-MDP (2-4 mg/kg) encapsulated in liposomes, and similarly challenged with Candida albicans. Each treatment group contained 20 mice. All mice were monitored daily for number of survivors. Statistical analysis of survival time was computed using Mann Whitney U probability analysis, and the numbers of survivors were statistically compared using Fisher Exact probability analysis.
A second experiment was performed by the method described in Example 1, except that the mice were given a single pre-infection treatment at 72 hr prior to challenge, instead of treatments at 96 and 48 hr prior to challenge as in Example 1.

[2] = tested on: Candida albicans; assay: Survival of mice treated with abu-MDP at 96 and 48 hr prior to challenge with Candida albicans (Example 1, Table I); assay type: in vivo; conditions: for Survival No. (%) / Survival Time: no MLV, days 4 and 2 before infection; for Survival No. (%): third set of rows (saline control 0%); for Survival Time: third set of rows (saline control 3.6 days)
Method: Multilamellar vesicles (MLVs) were formed by drying down egg phosphatidylcholine and brain phosphatidylserine (7:3 molar ratio) on the inside of a flask. Phosphate-buffered saline lacking divalent cations (PBS) was added (1 ml per 20 micromoles phospholipid), and the flask shaken, either by hand or with a mechanical shaker, until the lipid film was dispersed. When N-acetylmuramyl-L-α-aminobutyryl-D-isoglutamine (abu-MDP) was to be encapsulated, it was included in the aqueous solution before addition to the lipid film. The vesicles formed as the result of shaking the aqueous solution which contained MDP derivative were washed to remove unencapsulated MDP derivative, pelleted by centrifugation at 30,000×g for 20-30 min, and then resuspended in PBS. MLV preparations made without MDP derivative were either pelleted and resuspended as described, or were used without further treatment.
as §1
P values, calculated for survival time and number of survivors at the time when controls (treated only with MLV or with saline) first reached 100% dead, were all less than 0.03. By comparison, the treatments with the same concentration of abu-MDP alone were ineffective (P≥0.05).

[3] = Radioactivity of 3H-desMDP in liposome fraction and aqueous supernatant after mixing with pre-formed MLVs (Example 3, Table III); assay type: physicochemical
Method: MLVs were prepared as described above, hydrating the dried lipid film with PBS. These pre-formed liposomes were then mixed with unencapsulated MDP compound spiked with tritiated N-acetyldesmethylmuramyl-L-alanyl-D-isoglutamine (^3 H-desMDP). The liposome/MDP derivative mixture was washed and pelleted, and the final liposome pellet resuspended in PBS. The radioactivity in the liposome fraction was determined, as well as the radioactivity in the aqueous supernatant from the washing and pelleting steps. […] Thus, MDP compounds are not incorporated into or attached to liposomes in the practice of the invention.

Substance | Survival No. (%) ([1]; abu-MDP 4 mg/kg) | Survival Time ([1]; abu-MDP 4 mg/kg) [days] | Survival No. (%) ([1]; free abu-MDP 60 mg/kg) | Survival Time ([1]; free abu-MDP 60 mg/kg) [days] | protective activity against Candida albicans ([2]; abu-MDP alone at the same concentration as used with MLV (P≥0.05)) | Survival No. (%) ([2]; free abu-MDP 4 mg/kg) | Survival Time ([2]; free abu-MDP 4 mg/kg) [days] | Survival No. (%) ([2]; free abu-MDP 60 mg/kg) | Survival Time ([2]; free abu-MDP 60 mg/kg) [days] | protective activity against Candida albicans ([2]; free abu-MDP alone raised to 60 mg/kg) | cpm/0.1 ml ([3]; aqueous fraction (supernatant from washing and pelleting)) | % of Total ([3]; aqueous fraction (supernatant)) [%] | % of Total ([3]; liposome fraction) [%] | cpm/0.1 ml ([3]; liposome fraction (final pellet resuspended in PBS))
N-acetylmuramyl-L-α-aminobutyryl-D-isoglutamine [abu-MDP] | 0 | 5.2 | 32 | 6.4 | ineffective | 0 | 4.4 | 45 | 6.9 | protective activity obtained equivalent to that seen using the lower dose of abu-MDP (2-4 mg/kg) plus MLV | – | – | – | –
tritiated N-acetyldesmethylmuramyl-L-alanyl-D-isoglutamine [^3 H-desMDP] | – | – | – | – | – | – | – | – | – | – | 557,610 cpm/0.1 ml and 562,800 cpm/0.1 ml | ~100 | 0.2 | 1,462 cpm/0.1 ml and 1,304 cpm/0.1 ml
